Results published in ChEMBL document CHEMBL4152237, “Identification of novel β-lactams and pyrrolidinone derivatives as selective Histamine-3 receptor (H3R) modulators as possible anti-obesity agents” (Eur J Med Chem, 2018).
Active and inactive are the calls of the source. How the calls were made is not given here.

How the values were obtained:
Histamine H3 receptor = Histamine H3 receptor (Homo sapiens, UniProt Q9Y5N1); assay: Agonist activity at human H3R expressed in HEK293 cells harboring glosensor-22F cAMP plasmid DNA assessed as inhibition of forskolin-stimulated cAMP accumulation at 10 uM preincubated with cells followed by forskolin addition measured after 10 mins by luminescence assay relative to control; assay type: functional, cell-based
[1] = molecular target: T1, 5-hydroxytryptamine receptor 2C (Homo sapiens) (UniProt P28335); assay: Agonist activity at human 5-HT2C expressed in HEK293 cells harboring luc2P/NFAT-RE plasmid at 10 uM after 6 to 8 hrs by luciferase reporter gene assay; assay type: functional, cell-based
T1 sequence (whole entry): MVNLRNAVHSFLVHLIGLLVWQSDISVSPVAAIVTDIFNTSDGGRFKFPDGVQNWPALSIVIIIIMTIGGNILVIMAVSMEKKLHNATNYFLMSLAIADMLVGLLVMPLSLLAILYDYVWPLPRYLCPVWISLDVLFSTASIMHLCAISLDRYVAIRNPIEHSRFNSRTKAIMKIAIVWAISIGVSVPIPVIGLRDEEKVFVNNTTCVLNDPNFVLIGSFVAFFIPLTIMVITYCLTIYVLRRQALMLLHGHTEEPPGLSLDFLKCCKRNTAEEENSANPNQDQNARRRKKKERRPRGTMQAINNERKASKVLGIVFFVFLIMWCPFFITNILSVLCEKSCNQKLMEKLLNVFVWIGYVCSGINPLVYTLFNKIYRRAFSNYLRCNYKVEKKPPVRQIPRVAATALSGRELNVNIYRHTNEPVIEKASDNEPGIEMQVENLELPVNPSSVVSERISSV

Chain of Histamine H3 receptor (Q9Y5N1 whole entry): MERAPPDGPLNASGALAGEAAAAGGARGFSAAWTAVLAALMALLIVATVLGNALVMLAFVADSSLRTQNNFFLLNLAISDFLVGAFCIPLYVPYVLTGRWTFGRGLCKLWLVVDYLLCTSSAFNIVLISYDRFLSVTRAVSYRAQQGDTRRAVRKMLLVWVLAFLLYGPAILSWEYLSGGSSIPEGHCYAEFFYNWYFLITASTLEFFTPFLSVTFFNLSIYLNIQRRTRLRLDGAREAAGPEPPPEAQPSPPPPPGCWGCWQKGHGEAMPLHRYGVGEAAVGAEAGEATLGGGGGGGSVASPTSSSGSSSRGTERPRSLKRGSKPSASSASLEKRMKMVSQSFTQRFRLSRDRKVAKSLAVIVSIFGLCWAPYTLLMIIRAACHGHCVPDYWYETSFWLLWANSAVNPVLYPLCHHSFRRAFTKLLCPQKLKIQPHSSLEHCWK

| inhibition (Histamine H3 receptor) | Activity [1] | SMILES |
| --- | --- | --- |
| inactive | inactive | COc1cc(OC)c(C(C(=O)NC2CCCCC2)N2C(=O)C(c3ccc(CO)cc3)=C(c3ccccc3)C23C=CC(=O)C=C3)cc1OC (stereo unspecified) |
| inactive | inactive | COc1ccccc1[C@@H]1C(=O)N[C@@H]2CC(=O)C=C[C@@]23C(c2ccccc2)=CC(=O)N13 |
| inactive | inactive | COc1ccc(C2(Nc3cc(OC)c(OC)c(OC)c3)C(=O)N(C(C)(C)C)C(=O)/C2=C/c2ccccc2)cc1 (stereo unspecified) |
| inactive | inactive | Cc1ccccc1C(C(=O)NC(C)(C)C)N1C(=O)C(I)=C(c2ccccc2)C12C=CC(=O)C=C2 (stereo unspecified) |
| inactive | inactive | COc1ccc(C2(Nc3cc(OC)c(OC)c(OC)c3)C(=O)N(C3CCCCC3)C(=O)/C2=C/c2ccccc2)cc1 (stereo unspecified) |
| inactive | inactive | O=C1C=C[C@]23C(c4ccccc4)=CC(=O)N2[C@H](c2ccc(Cl)cc2)C(=O)N[C@@H]3C1 |
| inactive | inactive | O=C1C=CC2(C=C1)C(c1ccccc1)=C(I)C(=O)N2C(C(=O)NC1CCCCC1)c1ccccc1[N+](=O)[O-] (stereo unspecified) |
| inactive | inactive | CC(C)(C)NC(=O)C(c1cccc(Cl)c1)N1C(=O)C(I)=C(c2ccccc2)C12C=CC(=O)C=C2 (stereo unspecified) |
| inactive | inactive | COC1=CC2(C=C(OC)C1=O)C(c1ccccc1)=C(c1ccc(OC)c(OC)c1OC)C(=O)N2C(C(=O)NC1CCCCC1)c1cc(OC)c(OC)c(OC)c1 (stereo unspecified) |
| inactive | inactive | CN(C)c1ccc([C@@H]2C(=O)N[C@@H]3CC(=O)C=C[C@@]34C(c3ccccc3)=CC(=O)N24)cc1 |
| inactive | inactive | COc1ccc(C(C(=O)NC(C)(C)C)N2C(=O)C(I)=C(c3ccccc3)C23C=CC(=O)C=C3)cc1 (stereo unspecified) |
| inactive | inactive | COc1ccc(C(C(=O)NC2CCCCC2)N2C(=O)C=C(c3ccccc3)C23C=CC(=O)C=C3)cc1C (stereo unspecified) |
| inactive | inactive | CC(C)(C)NC(=O)C(c1ccccc1Br)N1C(=O)C(I)=C(c2ccccc2)C12C=CC(=O)C=C2 (stereo unspecified) |
| – | inactive | COc1ccc(N2C(=O)/C(=C\c3ccccc3)C2(C(=O)NC(C)(C)C)c2cc(F)cc(F)c2)cc1 (stereo unspecified) |

The next lines start with the compound.

| SMILES | inhibition (Histamine H3 receptor) | Activity [1] |
| --- | --- | --- |
| COc1ccc(NC2(c3cccc(Cl)c3)C(=O)N(C(C)(C)C)C(=O)/C2=C/c2ccccc2)cc1 (stereo unspecified) | inactive | inactive |
| COc1ccc(N2C(=O)/C(=C\c3ccccc3)C2(C(=O)NC(C)(C)C)c2ccc(C(F)(F)F)cc2)cc1 (stereo unspecified) | inactive | inactive |
| O=C1C=C[C@]23C(c4ccccc4)=CC(=O)N2[C@H](c2cccc(Br)c2)C(=O)N[C@@H]3C1 | inactive | inactive |
| O=C1C=C[C@]23C(c4ccccc4)=CC(=O)N2[C@H](c2cccc(OC(F)(F)F)c2)C(=O)N[C@@H]3C1 | inactive | inactive |
| COc1ccc(N2C(=O)C(=Cc3ccccc3)C2(C(=O)NC(C)(C)C)c2ccccc2)cc1 (stereo unspecified) | inactive | inactive |
| COc1ccc(N2C(=O)/C(=C\c3ccccc3)C2(C(=O)NC(C)(C)C)c2ccc(F)cc2)cc1 (stereo unspecified) | inactive | inactive |
| COc1ccc(N2C(=O)/C(=C\c3ccccc3)C2(C(=O)NC(C)(C)C)c2cc(C)cc(C)c2)cc1 (stereo unspecified) | inactive | inactive |
| COc1ccc(N2C(=O)/C(=C\c3ccccc3)C2(C(=O)NC(C)(C)C)c2cccc(Cl)c2)cc1 (stereo unspecified) | inactive | inactive |
| COc1ccc(NC2(c3cc(F)cc(F)c3)C(=O)N(C(C)(C)C)C(=O)/C2=C/c2ccccc2)cc1 (stereo unspecified) | inactive | inactive |
| N#Cc1ccc([C@@H]2C(=O)N[C@@H]3CC(=O)C=C[C@@]34C(c3ccccc3)=CC(=O)N24)cc1 | – | inactive |
